Results as given in ChEMBL document CHEMBL3885881, “DrugMatrix”.

Species on record: Rattus norvegicus
Experiment: DrugMatrix - Regimen: Daily Repeat
Format: toxicity, organism-based, Sprague-Dawley
Parameters: regimen Daily Repeat, gender Male, age 6-8 weeks
Conditions: in vivo, po, route oral GAVAGE, […]; for BASOPHIL / EOSINOPHIL / ERYTHROCYTE COUNT / HEMATOCRIT / HEMOGLOBIN / LEUKOCYTE COUNT / LYMPHOCYTE / MEAN CORPUSCULAR HEMOGLOBIN / MEAN CORPUSCULAR HEMOGLOBIN CONCENTRATION / MEAN CORPUSCULAR VOLUME / MONOCYTE / NEUTROPHIL / PLATELET COUNT: tissue Blood; for ALANINE AMINOTRANSFERASE / ALBUMIN / ALKALINE PHOSPHATASE / ASPARTATE AMINOTRANSFERASE / BLOOD UREA NITROGEN / CARBON DIOXIDE / CHLORIDE / CHOLESTEROL / CREATINE PHOSPHOKINASE / CREATININE / GLUCOSE / LACTATE DEHYDROGENASE / LIPASE / PHOSPHORUS / POTASSIUM / SODIUM / TOTAL BILIRUBIN / TOTAL PROTEIN / URIC ACID: tissue Plasma
[1] = 100 mg/kg, 72 h, dose level Low, time 3 day
[2] = 100 mg/kg, 120 h, dose level Low, time 5 day
[3] = 1200 mg/kg, 72 h, dose level High, time 3 day
[4] = 1200 mg/kg, 120 h, dose level High, time 5 day

SMILES: Cc1c(C)c2c(c(C)c1O)CCC(C)(COc1ccc(CC3SC(=O)NC3=O)cc1)O2 (stereo not drawn) [TROGLITAZONE]
- BASOPHIL [1]: 0%
- EOSINOPHIL [1]: 1%
- ERYTHROCYTE COUNT [1]: 6.97 x10E6/uL
- HEMATOCRIT [1]: 42.83%
- HEMOGLOBIN [1]: 14.33 G/DL
- LEUKOCYTE COUNT [1]: 7.7 x10E3/uL
- LYMPHOCYTE [1]: 77.67%
- MEAN CORPUSCULAR HEMOGLOBIN [1]: 20.57 pg
- MEAN CORPUSCULAR HEMOGLOBIN CONCENTRATION [1]: 33.5 G/DL
- MEAN CORPUSCULAR VOLUME [1]: 61.4 fL
- MONOCYTE [1]: 3%
- NEUTROPHIL [1]: 18.33%
- PLATELET COUNT [1]: 1143 x10E3/uL
- ALANINE AMINOTRANSFERASE [1]: 57.67 u/L
- ALBUMIN [1]: 4.33 G/DL
- ALKALINE PHOSPHATASE [1]: 396.67 u/L
- ASPARTATE AMINOTRANSFERASE [1]: 112.67 u/L
- BLOOD UREA NITROGEN [1]: 14.67 mg/dL
- CARBON DIOXIDE [1]: 24.67 mmol/L
- CHLORIDE [1]: 103.33 MEQ/L
- CHOLESTEROL [1]: 74.67 mg/dL
- CREATINE PHOSPHOKINASE [1]: 585.67 u/L
- CREATININE [1]: 0.3 mg/dL
- GLUCOSE [1]: 141 mg/dL
- LACTATE DEHYDROGENASE [1]: 938.33 u/L
- LIPASE [1]: 10 u/L
- PHOSPHORUS [1]: 8.83 mg/dL
- POTASSIUM [1]: 5.6 MEQ/L
- SODIUM [1]: 144.33 MEQ/L
- TOTAL BILIRUBIN [1]: 0.1 mg/dL
- TOTAL PROTEIN [1]: 5.83 G/DL
- URIC ACID [1]: 1.2 mg/dL
- BASOPHIL [2]: 0.33%
- EOSINOPHIL [2]: 0.67%
- ERYTHROCYTE COUNT [2]: 7.13 x10E6/uL
- HEMATOCRIT [2]: 43.8%
- HEMOGLOBIN [2]: 14.4 G/DL
- LEUKOCYTE COUNT [2]: 13.53 x10E3/uL
- LYMPHOCYTE [2]: 82.33%
- MEAN CORPUSCULAR HEMOGLOBIN [2]: 20.2 pg
- MEAN CORPUSCULAR HEMOGLOBIN CONCENTRATION [2]: 32.87 G/DL
- MEAN CORPUSCULAR VOLUME [2]: 61.5 fL
- MONOCYTE [2]: 1.67%
- NEUTROPHIL [2]: 15.67%
- PLATELET COUNT [2]: 873.33 x10E3/uL
- ALANINE AMINOTRANSFERASE [2]: 66.67 u/L
- ALBUMIN [2]: 4.27 G/DL
- ALKALINE PHOSPHATASE [2]: 446.67 u/L
- ASPARTATE AMINOTRANSFERASE [2]: 84.33 u/L
- BLOOD UREA NITROGEN [2]: 15 mg/dL
- CARBON DIOXIDE [2]: 23.67 mmol/L
- CHLORIDE [2]: 99.67 MEQ/L
- CHOLESTEROL [2]: 63.67 mg/dL
- CREATINE PHOSPHOKINASE [2]: 419.67 u/L
- CREATININE [2]: 0.3 mg/dL
- GLUCOSE [2]: 149 mg/dL
- LACTATE DEHYDROGENASE [2]: 313.33 u/L
- LIPASE [2]: 9.33 u/L
- PHOSPHORUS [2]: 9.73 mg/dL
- POTASSIUM [2]: 5.57 MEQ/L
- SODIUM [2]: 139.67 MEQ/L
- TOTAL BILIRUBIN [2]: 0.0667 mg/dL
- TOTAL PROTEIN [2]: 5.8 G/DL
- URIC ACID [2]: 0.87 mg/dL
- BASOPHIL [3]: 0%
- EOSINOPHIL [3]: 1%
- ERYTHROCYTE COUNT [3]: 7.21 x10E6/uL
- HEMATOCRIT [3]: 43.6%
- HEMOGLOBIN [3]: 14.63 G/DL
- LEUKOCYTE COUNT [3]: 6.47 x10E3/uL
- LYMPHOCYTE [3]: 79.33%
- MEAN CORPUSCULAR HEMOGLOBIN [3]: 20.33 pg
- MEAN CORPUSCULAR HEMOGLOBIN CONCENTRATION [3]: 33.6 G/DL
- MEAN CORPUSCULAR VOLUME [3]: 60.5 fL
- MONOCYTE [3]: 2.67%
- NEUTROPHIL [3]: 16.67%
- PLATELET COUNT [3]: 1107 x10E3/uL
- ALANINE AMINOTRANSFERASE [3]: 85.33 u/L
- ALBUMIN [3]: 4.53 G/DL
- ALKALINE PHOSPHATASE [3]: 481.33 u/L
- ASPARTATE AMINOTRANSFERASE [3]: 92.33 u/L
- BLOOD UREA NITROGEN [3]: 14.67 mg/dL
- CARBON DIOXIDE [3]: 23 mmol/L
- CHLORIDE [3]: 104 MEQ/L
- CHOLESTEROL [3]: 65.33 mg/dL
- CREATINE PHOSPHOKINASE [3]: 471 u/L
- CREATININE [3]: 0.3 mg/dL
- GLUCOSE [3]: 140.33 mg/dL
- LACTATE DEHYDROGENASE [3]: 332.33 u/L
- LIPASE [3]: 9.33 u/L
- PHOSPHORUS [3]: 8.43 mg/dL
- POTASSIUM [3]: 5.33 MEQ/L
- SODIUM [3]: 146 MEQ/L
- TOTAL BILIRUBIN [3]: 0.1 mg/dL
- TOTAL PROTEIN [3]: 6 G/DL
- URIC ACID [3]: 0.97 mg/dL
- BASOPHIL [4]: 0%
- EOSINOPHIL [4]: 1%
- ERYTHROCYTE COUNT [4]: 6.94 x10E6/uL
- HEMATOCRIT [4]: 42.1%
- HEMOGLOBIN [4]: 13.63 G/DL
- LEUKOCYTE COUNT [4]: 9.2 x10E3/uL
- LYMPHOCYTE [4]: 81%
- MEAN CORPUSCULAR HEMOGLOBIN [4]: 19.63 pg
- MEAN CORPUSCULAR HEMOGLOBIN CONCENTRATION [4]: 32.4 G/DL
- MEAN CORPUSCULAR VOLUME [4]: 60.63 fL
- MONOCYTE [4]: 2.33%
- NEUTROPHIL [4]: 16%
- PLATELET COUNT [4]: 801.33 x10E3/uL
- ALANINE AMINOTRANSFERASE [4]: 58 u/L
- ALBUMIN [4]: 4.3 G/DL
- ALKALINE PHOSPHATASE [4]: 406.67 u/L
- ASPARTATE AMINOTRANSFERASE [4]: 77.33 u/L
- BLOOD UREA NITROGEN [4]: 16 mg/dL
- CARBON DIOXIDE [4]: 25 mmol/L
- CHLORIDE [4]: 99.33 MEQ/L
- CHOLESTEROL [4]: 64.33 mg/dL
- CREATINE PHOSPHOKINASE [4]: 451.67 u/L
- CREATININE [4]: 0.3 mg/dL
- GLUCOSE [4]: 149 mg/dL
- LACTATE DEHYDROGENASE [4]: 118.67 u/L
- LIPASE [4]: 8.67 u/L
- PHOSPHORUS [4]: 9.07 mg/dL
- POTASSIUM [4]: 5.67 MEQ/L
- SODIUM [4]: 138 MEQ/L
- TOTAL BILIRUBIN [4]: 0.1 mg/dL
- TOTAL PROTEIN [4]: 5.77 G/DL
- URIC ACID [4]: 1.1 mg/dL
